According to PMC6776562, “Inhibition of Rac1-dependent forgetting alleviates memory deficits in animal models of Alzheimer’s disease” (Protein & Cell, 2019):

How the values were obtained:
[1] = Pharmacokinetics study in CD1 mice; assay type: in vivo; details: for AUC0-infinity / AUC0-t / T1/2 / Tmax / F (bioavailability): CD1 mice; for AUC0-infinity / AUC0-t / T1/2 / Tmax: plasma, estimated value, n = 3; for AUC0-infinity / AUC0-t / T1/2: P.O 50 mg/kg CS7171, 40 mg/kg JKF-034 (I.V 10 and 2.5 mg/kg), route of the parameter not stated; for Tmax: P.O 50 mg/kg CS7171, 40 mg/kg JKF-034; for F (bioavailability): P.O 50 mg/kg vs I.V 10 mg/kg CS7171, P.O 40 mg/kg vs I.V 2.5 mg/kg JKF-034
Experimental: For the CS7171 and JKF-034 pharmacokinetics (PK) assays, 30 CD1 mice were purchased from JH Laboratory Animal Co. LTD (Qualification No: SCXK (SH) 2017-001220170012002565). A total of 18 CD1 mice were grouped for intravenous injection (I.V) with 10 mg/kg CS7171 and 2.5 mg/kg JKF-034. Sampling was performed at 0.083, 0.25, 0.5, 1, 3, 6 and 24 h after administration. A total of 12 CD1 mice were grouped for oral administration (P.O) of 50 mg/kg CS7171 and 40 mg/kg JKF-034. Sampling was performed at 0.25, 0.5, 1, 3, 6 and 24 h after administration. The blood samples were maintained in wet ice first and centrifuged to obtain plasma within 15 min post-sampling. Subsequently, the samples were subjected to LC-MS/MS analysis.

[2] = tested on: Aβ42; assay: Aβ42 level by Western blot (6E10 antibody) after drug administration; assay type: in vivo, APP/PS1 mice; details: for level of Aβ42 monomer: 7-month-old APP/PS1 mice, two weeks of P.O administration
Experimental: The hippocampal tissues from human subjects and mice were harvested and stored in a liquid nitrogen tank for biochemical assay. The tissues were homogenized in cold lysis buffer (Merck-Millipore, 20-168). The insoluble debris were removed after centrifugation at 13,000 rpm (for 10 min, at 4 °C). For GTP-bound Rac/Cdc42, lysates were incubated with GST-tagged PAK (p21-activated kinase)-PBD agarose beads (Cytoskeleton, PAK02) overnight at 4 °C. On the second day, the beads were washed three times with lysis buffer before subjecting them to SDS-PAGE (15%) and transferring them onto nitrocellulose membranes (Millipore, HATF00010). The membranes were incubated with primary antibodies (for Rac1: BD Transduction Laboratories, #610650, 1:2,000 dilution; for Cdc42, Santa Cruz Biotechnology, lot No. sc-8401, 1:500 dilution) overnight at 4 °C and with HRP-conjugated goat anti-mouse IgG (Cell Signaling Technology, #7076) for 1 h at room temperature. Intensities of the detected bands were analyzed using ImageJ software (National Institutes of Health). The total amount of Rac1 in the lysate was detected using a routine Western blot procedure. RhoA-GTP levels were measured by using the Rho-GTP monoclonal antibody (New East, lot No. 26904, Dilution: 1:1,000). Information regarding the other antibodies used is as follows: anti-RhoA (67B9), Cell Signaling, lot No. #2117, dilution: 1:1,000; anti-Actin, Clone C4, Millipore, lot No. #3018859, dilution: 1:2,000; anti-Amyloid 1-42 6E10, BioLegend, lot No. 803001, dilution: 1:1,000; anti-Phospho-PAK1 ([…])/PAK2 ([…]), Cell Signaling, lot No. #2606, dilution: 1:1,000. page 2: A Representative […] blot of AE42 detected by AE42 monoclonal antibody (6E10) after two weeks of administration (P.O) of CS7171 and JKF-034 in 7-month-old APP/PS1 mice. B The level of AE42 monomer was decreased by JKF-034. […] D Representative […] blot of total RhoA, total Cdc42, RhoA-GTP, and Cdc42-GTP after two weeks of drug administration (P.O) of CS7171 and JKF-034 in 7-month-old APP/PS1 mice. […] Data information: All values are expressed as mean r SEM.

**Q.** Which AUC0-infinity [1] does the source give for O=C1NN(c2ccc(Cl)c(Cl)c2)C(=O)C1=Cc1ccc(O)c(N(O)O)c1 [CS7171] here?
**A.** The AUC0-infinity was 4,160 h*ng/mL.

**Q.** And the AUC0-t [1]?
**A.** The AUC0-t was 4,101 h*ng/mL.

**Q.** And the T1/2 [1]?
**A.** The T1/2 was 56.6 min.

**Q.** What about the Tmax [1] of the same compound?
**A.** The Tmax was 15 min.

**Q.** And the “F (bioavailability)” value [1]?
**A.** Its value is 28.2%.

**Q.** And the “level of Aβ42 monomer” value [2]?
**A.** The value was “did not aff ect”.

**Q.** Which “metabolic half-time (T1/2) of JKF-034 relative to CS7171” value ([1]; CD1 mice PK) does the source give for O=S(=O)(c1ccccc1)N1CCN(Cc2ccccc2)CC1 [JKF-034] here?
**A.** Its value is “about ten times higher than that of CS7171”.

**Q.** And the AUC0-infinity [1]?
**A.** The AUC0-infinity was 1,692 h*ng/mL.

**Q.** What about the AUC0-t [1] of the same compound?
**A.** Its AUC0-t is 1,262 h*ng/mL.

**Q.** And the T1/2 [1]?
**A.** Its T1/2 is 551 min.

**Q.** What about the Tmax [1] of the same compound?
**A.** Its Tmax is 30 min.

**Q.** And the “F (bioavailability)” value [1]?
**A.** The value was 19.3%.

**Q.** What about the “level of Aβ42 monomer” value [2] of the same compound?
**A.** Its value is “decreased”.

**Q.** What about the Aβ42 accumulation ([2]; APP/PS1 mice, Fig. S4A–C) of the same compound?
**A.** The Aβ42 accumulation was “reduction”.
